For data set [1], the system named is DHFR (human versus Pneumocystis jirovecii). The experiment in a line: Selectivity ratio of IC50 for inhibition of recombinant human DHFR using 18 uM DHFA as substrate to IC50 for inhibition of Pneumocystis jirovecii DHFR using 18 uM DHFA as substrate. The format is toxicity. The settings on record: recombinant human DHFR and Pneumocystis jirovecii DHFR, probe DHFA (substrate), read-out: Ratio IC50.

Data set [2] is described as follows: Inhibition of Pneumocystis jirovecii DHFR expressed in Escherichia coli Rosetta-gami B (DE3) assessed as reduction in consumption of NADPH using 18 uM DHFA as substrate.
Data set [3] is described as follows: Inhibition of Pneumocystis carinii DHFR expressed in Escherichia coli Rosetta-gami B (DE3) assessed as reduction in consumption of NADPH using DHFA as substrate.
A short description of data set [4]: Inhibition of Pneumocystis jirovecii DHFR expressed in Escherichia coli Rosetta-gami B (DE3) assessed as reduction in consumption of NADPH using 9 uM DHFA as substrate.
The test system of data set [5] is DHFR (human versus Pneumocystis jirovecii). The experiment in a line: Selectivity ratio of IC50 for inhibition of recombinant human DHFR using 9 uM DHFA as substrate to IC50 for inhibition of Pneumocystis jirovecii DHFR using 9 uM DHFA as substrate. The format is toxicity. The settings on record: recombinant human DHFR and Pneumocystis jirovecii DHFR, probe DHFA (substrate), read-out: Ratio IC50.

Data set [6] addresses T1, Dihydrofolate reductase (Homo sapiens, UniProt P00374).
T1 sequence (P00374 whole entry): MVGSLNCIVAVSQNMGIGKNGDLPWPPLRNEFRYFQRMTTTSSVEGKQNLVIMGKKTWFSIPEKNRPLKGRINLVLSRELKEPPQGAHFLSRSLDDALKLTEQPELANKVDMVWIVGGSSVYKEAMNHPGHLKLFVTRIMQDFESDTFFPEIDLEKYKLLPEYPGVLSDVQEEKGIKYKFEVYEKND
The experiment in a line: Inhibition of recombinant human DHFR assessed as reduction in consumption of NADPH using 9 uM DHFA as substrate.

Data set [7] concerns the target T2, Dihydrofolate reductase (Rattus norvegicus, UniProt Q920D2).
T2 sequence (Q920D2 whole entry): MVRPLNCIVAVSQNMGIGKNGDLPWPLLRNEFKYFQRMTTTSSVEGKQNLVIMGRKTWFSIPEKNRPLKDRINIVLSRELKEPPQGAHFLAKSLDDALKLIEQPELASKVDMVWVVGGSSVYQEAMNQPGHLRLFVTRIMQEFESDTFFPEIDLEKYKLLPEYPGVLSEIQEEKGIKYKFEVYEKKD
The experiment in a line: Inhibition of rat liver DHFR assessed as reduction in consumption of NADPH using DHFA as substrate.

This is an account of results in ChEMBL document CHEMBL4387751, “Development of substituted pyrido[3,2-d]pyrimidines as potent and selective dihydrofolate reductase inhibitors for pneumocystis pneumonia infection” (Bioorg Med Chem Lett, 2019).

A word on the IC50: it is the concentration needed to halve the response being measured.

Regarding `Nc1nc(N)c2cc(Nc3cc(F)c(F)c(F)c3)cnc2n1`, the selectivity ratio in data set [1] was determined as 4. Moreover, the IC50 in data set [2] was 870 nM.
Consider `Cc1ccc(Nc2cnc3nc(N)nc(N)c3c2)cc1`, for which the selectivity ratio in data set [1] was determined as 3. Moreover, in data set [2], the IC50 is 620 nM.
Regarding `COc1ccc(OC)c(NCc2ccc3nc(N)nc(N)c3n2)c1`, the concentration for half-maximal inhibition (IC50) in data set [3] amounted to 1400 nM.
Regarding `Nc1nc(N)c2cc(Nc3ccccc3)cnc2n1`, the selectivity ratio in data set [1] is below 1. Besides, the IC50 in data set [2] is 300 nM.
For `Nc1nc(N)c2nc(Nc3ccc(O)cc3)ccc2n1`, the IC50 in data set [4] stood at 150 nM; on Dihydrofolate reductase [6] it was 1580 nM. The selectivity ratio in data set [5] was 10.
For the compound `COc1ccc(Nc2cnc3nc(N)nc(N)c3c2)cc1`, in data set [2], the half-maximal inhibitory concentration (IC50) is 400 nM.
With `COc1ccc(OC)c(NCc2cnc3nc(N)nc(N)c3c2)c1`, at Dihydrofolate reductase [7], the IC50 turned out to be 500 nM.
`Nc1nc(N)c2nc(Nc3ccc(F)c(F)c3)ccc2n1`: the IC50 in data set [4] was 80 nM; on Dihydrofolate reductase [6], 2250 nM. The selectivity ratio in data set [5] came out at 28.
Take `Nc1nc(N)c2cc(Nc3cccc4ccccc34)cnc2n1`: the selectivity ratio in data set [1] was determined as 8. The IC50 in data set [2] is 250 nM.
In the case of `Nc1nc(N)c2nc(Nc3ccc4ccccc4c3)ccc2n1`, the IC50 in data set [4] worked out at 275 nM; at Dihydrofolate reductase [6] it was 3180 nM. Moreover, the selectivity ratio in data set [5] was determined as 12.
For the compound `Nc1nc(N)c2cc(Nc3ccc4ccccc4c3)cnc2n1`, the selectivity ratio in data set [1] came out at 5. Further, the IC50 in data set [2] was 400 nM.
On to `Nc1nc(N)c2nc(Nc3cc(F)c(F)c(F)c3)ccc2n1`, for which the concentration for half-maximal inhibition (IC50) in data set [4] worked out at 155 nM. Further, the selectivity ratio in data set [5] is 12.
Turning to `Nc1nc(N)c2nc(Nc3cccc4ccccc34)ccc2n1`, the IC50 amounted to 112 nM in data set [4] and 1100 nM on Dihydrofolate reductase [6]. For the same compound, the selectivity ratio in data set [5] was determined as 10.
Turning to `COc1cc(NCc2ccc3nc(N)nc(N)c3c2C)cc(OC)c1OC` [TRIMETREXATE], the IC50 in data set [2] was 2.1 nM.
As to `CCN(c1ccccc1)c1ccc2nc(N)nc(N)c2n1`, the IC50 in data set [4] came out at 150 nM.
Regarding `CCCCN(c1ccccc1)c1ccc2nc(N)nc(N)c2n1`, the IC50 in data set [4] came to 66 nM.
As for `Cc1ccc(Nc2ccc3nc(N)nc(N)c3n2)cc1`, the IC50 in data set [4] stood at 174 nM; on Dihydrofolate reductase [6], 2630 nM. Moreover, the selectivity ratio in data set [5] amounted to 15.
With `Nc1nc(N)c2nc(Nc3ccccc3)ccc2n1`, the values for the IC50 (in data set [4]; at Dihydrofolate reductase [6]) were 122 nM and 1530 nM, respectively. In addition, the selectivity ratio in data set [5] amounted to 13.
As for `COc1ccc(Nc2ccc3nc(N)nc(N)c3n2)cc1`, the results for the IC50 (in data set [4]; on Dihydrofolate reductase [6]) were 239 nM and 2460 nM, respectively.
